Results on 22 molecules are retold here after paper PMC7037052, “Predicting the Blood-Brain Barrier Permeability of New Drug-Like Compounds via HPLC with Various Stationary Phases” (Molecules, 2020).

Holding throughout (type): physicochemical
Data set [1] is described as follows: RP-HPLC retention on Purosphere RP-18e (ODS) column, buffer pH 7.4-acetonitrile. The settings on record: for log kw, ODS: extrapolated to buffer pH 7.4 as mobile phase, 25 °C; for s ODS: slope of Soczewiński-Wachtmeister equation, acetonitrile φ 0.3–0.6. The method, then:
(§1) Retention parameters reported as the log k values were calculated by the expression:(1) logk=log(tR−t0)/t0 where tR and t0 are the retention times of the solute and a non-retained compound (citric acid), respectively. They were used to calculate the log kw values, i.e., logarithms of retention parameter in the buffer as the mobile phase. For this purpose the Soczewiński-Wachtmeister’s equation was used:log k = log kw − sφ(2) where φ is the volume fraction of organic modifier in the mobile phase; k and kw are retention parameters corresponding to mixed effluent and buffer as the mobile phase, respectively. The slope s is characteristic of a given solute and chromatographic system. Strong linear relationships between log k and φ values were found for all the compounds in the range of effluent composition examined (R^2 > 0.9). The log kw values determined for the ODS (log kw, ODS), IAM (log kw, IAM) and Cholester (log kw, Cholester) columns were intercorrelated and the following linear relationships with a very good statistical quality were obtained:log kw, ODS = 0.691(± 0.094) + 0.982(± 0.044) log kw, IAM(3) SD = 0.257; R^2 = 0.8880; N = 65 log kw, ODS = 0.911(± 0.062) + 0.765(± 0.025) log kw, Cholester(4) SD = 0.192; R^2 = 0.9371; N = 65 log kw, IAM = 0.356(± 0.073) + 0.721(± 0.029) log kw, Cholester(5) SD = 0.224; R^2 = 0.9068; N = 65
(§2) Shimadzu Vp (Shimadzu, Izabelin, Poland) liquid chromatographic system equipped with LC 10AT pump, SPD 10A UV-Vis detector, SCL 10A system controller, CTO-10 AS chromatographic oven and Rheodyne injector valve with a 20 µL loop was applied in HPLC measurements. Three stationary phases were employed: • Purosphere RP-18e (ODS), 125 × 4 mm i.d., 5 µm (Merck); • IAM.PC.DD2 100 × 4.6 mm i.d., 10 µm (Regis Chemicals Company, Morton Grove, IL, USA); • Cosmosil Cholester, 75 × 2 mm i.d., 2.5 µm (Genore, Warsaw, Poland).
(§3) As mobile phases buffer-acetonitrile mixtures were used. The buffer was prepared from 0.01 mol L^−1 solutions of Na2HPO4 and citric acid and the pH 7.4 value was fixed before mixing with organic modifier. With the ODS column acetonitrile concentration in the effluent, expressed as a volume fraction (φ, v/v), was changed in the range 0.3–0.6, with the constant step of 0.1. The flow rate was 1 mL min^−1. With the IAM column acetonitrile concentration was changed in the range 0.2–0.5, also with the constant step of 0.1 and the flow rate was 1.3 mL min^−1. With the Cosmosil Cholester column acetonitrile concentration was changed in the range 0.4–0.6, with the constant step of 0.05 and the flow rate was 0.4 mL min^−1. Samples of test compounds were dissolved in acetonitrile—c.a. 0.005 mg mL^−1. […] They were detected under UV light at 210 and 254 nm. All measurements were carried out at 25 °C. The dead time values were measured from non-retained compound (citric acid) peaks. All reported log kw values are the average of at least three independent measurements. The extrapolated retention coefficients (logs kw) achieved by HPLC on ODS, IAM and Cholester stationary phases were used for modelling the log BB permeation of 65 drug-like compounds employed as a whole test set (Table 1).

Data set [2] in a line: RP-HPLC retention on IAM.PC.DD2 (immobilized artificial membrane) column, buffer pH 7.4-acetonitrile. The settings on record: for log kw, IAM: extrapolated to buffer pH 7.4 as mobile phase, 25 °C; for s IAM: slope of Soczewiński-Wachtmeister equation, acetonitrile φ 0.2–0.5. The method, then:
as §1, §2, §3

Data set [3] can be described thus: RP-HPLC retention on Cosmosil Cholester column, buffer pH 7.4-acetonitrile. The settings on record: for log kw, Cholester: extrapolated to buffer pH 7.4 as mobile phase, 25 °C; for s Cholester: slope of Soczewiński-Wachtmeister equation, acetonitrile φ 0.4–0.6. As to the method: as §1, §2, §3

On to `COC(=O)Cc1nnc2n(c1=O)CCN2c1ccc(OC)cc1` [Compound 9], for which, in data set [1], the “log kw, ODS” value is 1.30 and the “s ODS” value is reported as 3.02. Moreover, in data set [2], the “log kw, IAM” value is 0.81 and the “s IAM” value is listed as 2.45. Besides, in data set [3], the “log kw, Cholester” value is on record as 0.57 and the “s Cholester” value amounted to 1.82.
In the case of `CCOc1ccc(N2CCn3c2nnc(Cc2ccc(Cl)cc2)c3=O)cc1` [Compound 55], in data set [1], the “log kw, ODS” value is reported as 3.32 and the “s ODS” value came to 5.66. In data set [2], the “log kw, IAM” value is on record as 2.72 and the “s IAM” value is reported as 5.44. In addition, in data set [3], the “log kw, Cholester” value is recorded as 3.36 and the “s Cholester” value amounted to 5.35.
With `Cc1ccc(N2CCn3c2nnc(Cc2ccccc2Cl)c3=O)cc1` [Compound 48], in data set [1], the “log kw, ODS” value is given as 3.12 and the “s ODS” value turned out to be 5.11. In data set [2], the “log kw, IAM” value is 2.65 and the “s IAM” value turned out to be 5.21. In addition, in data set [3], the “log kw, Cholester” value is recorded as 3.24 and the “s Cholester” value is reported as 4.90.
`CCOc1ccc(N2CCn3c2nnc(CC(=O)OC)c3=O)cc1` [Compound 10]: in data set [1], the “log kw, ODS” value was 1.95 and the “s ODS” value came out at 3.91. In data set [2], the “log kw, IAM” value is recorded as 1.42 and the “s IAM” value came to 3.39. For the same molecule, in data set [3], the “log kw, Cholester” value is 1.36 and the “s Cholester” value stood at 2.81.
Consider `CCOc1ccc(N2CCn3c2nnc(-c2ccccc2)c3=O)cc1` [Compound 35], for which, in data set [1], the “log kw, ODS” value is given as 3.09 and the “s ODS” value is on record as 5.33. For the same molecule, in data set [2], the “log kw, IAM” value is on record as 2.14 and the “s IAM” value came out at 4.48. Moreover, in data set [3], the “log kw, Cholester” value is listed as 2.80 and the “s Cholester” value is on record as 4.61.
As to `COc1ccc(N2CCn3c2nnc(-c2ccccc2)c3=O)cc1` [Compound 34], in data set [1], the “log kw, ODS” value is recorded as 2.59 and the “s ODS” value amounted to 4.62. In data set [2], the “log kw, IAM” value was 1.71 and the “s IAM” value worked out at 3.91. Further, in data set [3], the “log kw, Cholester” value is reported as 2.27 and the “s Cholester” value worked out at 3.80.
Consider `Cc1ccc(N2CCn3c2nnc(-c2ccco2)c3=O)cc1` [Compound 20], for which, in data set [1], the “log kw, ODS” value is reported as 2.43 and the “s ODS” value is 4.39. For the same molecule, in data set [2], the “log kw, IAM” value is reported as 1.69 and the “s IAM” value was 3.90. Also, in data set [3], the “log kw, Cholester” value is recorded as 2.03 and the “s Cholester” value came to 3.68.
As for `Cc1ccc(N2CCn3c2nnc(Cc2ccc(Cl)cc2)c3=O)cc1` [Compound 50], in data set [1], the “log kw, ODS” value is listed as 3.22 and the “s ODS” value was 5.55. Moreover, in data set [2], the “log kw, IAM” value is 2.81 and the “s IAM” value was 5.62. Besides, in data set [3], the “log kw, Cholester” value is listed as 3.39 and the “s Cholester” value was found to be 5.34.
Take `CCOc1ccc(N2CCn3c2nnc(Cc2ccccc2Cl)c3=O)cc1` [Compound 53]: in data set [1], the “log kw, ODS” value was 2.93 and the “s ODS” value is given as 5.02. Further, in data set [2], the “log kw, IAM” value is recorded as 2.51 and the “s IAM” value turned out to be 5.17. Also, in data set [3], the “log kw, Cholester” value is reported as 3.21 and the “s Cholester” value was 5.15.
Take `CCOC(=O)Cc1nnc2n(c1=O)CCN2c1ccc(C)cc1` [Compound 13]: in data set [1], the “log kw, ODS” value is 2.37 and the “s ODS” value is recorded as 4.36. In data set [2], the “log kw, IAM” value was 1.70 and the “s IAM” value is listed as 3.85. Also, in data set [3], the “log kw, Cholester” value is 1.92 and the “s Cholester” value came to 3.58.
Consider `O=c1c(CCc2ccccc2)nnc2n1CCN2c1ccc(Cl)c(Cl)c1` [Compound 65], for which, in data set [1], the “log kw, ODS” value is on record as 4.29 and the “s ODS” value came out at 6.66. Moreover, in data set [2], the “log kw, IAM” value is listed as 3.40 and the “s IAM” value was found to be 6.55. Besides, in data set [3], the “log kw, Cholester” value is listed as 4.12 and the “s Cholester” value came to 6.20.
For `O=c1c(-c2ccccc2)nnc2n1CCN2c1ccccc1` [Compound 29], in data set [1], the “log kw, ODS” value was 2.49 and the “s ODS” value turned out to be 4.51. Further, in data set [2], the “log kw, IAM” value is recorded as 1.91 and the “s IAM” value was 4.22. In data set [3], the “log kw, Cholester” value is given as 2.34 and the “s Cholester” value came out at 4.02.
`Cc1ccc(N2CCn3c2nnc(CCc2ccccc2)c3=O)cc1` [Compound 62]: in data set [1], the “log kw, ODS” value is recorded as 3.23 and the “s ODS” value was 5.44. In data set [2], the “log kw, IAM” value was 2.41 and the “s IAM” value came out at 5.01. In data set [3], the “log kw, Cholester” value was 2.84 and the “s Cholester” value is on record as 4.70.
For `COC(=O)Cc1nnc2n(c1=O)CCN2c1ccccc1` [Compound 7], in data set [1], the “log kw, ODS” value is reported as 1.28 and the “s ODS” value was 3.09. Further, in data set [2], the “log kw, IAM” value is reported as 0.81 and the “s IAM” value amounted to 2.38. Moreover, in data set [3], the “log kw, Cholester” value is recorded as 0.58 and the “s Cholester” value stood at 1.92.
With `COc1ccc(N2CCn3c2nnc(-c2ccco2)c3=O)cc1` [Compound 23], in data set [1], the “log kw, ODS” value was 1.91 and the “s ODS” value was determined as 3.82. In data set [2], the “log kw, IAM” value is listed as 1.19 and the “s IAM” value was 3.13. Also, in data set [3], the “log kw, Cholester” value is 1.53 and the “s Cholester” value turned out to be 3.05.
Consider `O=c1c(CCc2ccccc2)nnc2n1CCN2c1ccccc1` [Compound 61], for which, in data set [1], the “log kw, ODS” value is reported as 2.80 and the “s ODS” value is 4.92. Besides, in data set [2], the “log kw, IAM” value is recorded as 2.07 and the “s IAM” value came to 4.45. In addition, in data set [3], the “log kw, Cholester” value is 2.33 and the “s Cholester” value amounted to 4.02.
For the molecule `Cc1ccccc1N1CCn2c1nnc(Cc1ccccc1Cl)c2=O` [Compound 56], in data set [1], the “log kw, ODS” value is reported as 3.01 and the “s ODS” value is 4.95. Also, in data set [2], the “log kw, IAM” value is on record as 2.02 and the “s IAM” value worked out at 4.31. For the same molecule, in data set [3], the “log kw, Cholester” value is on record as 2.34 and the “s Cholester” value was 4.05.
For `O=c1c(Cc2ccccc2)nnc2n1CCN2c1ccc(Cl)cc1` [Compound 57], in data set [1], the “log kw, ODS” value is recorded as 3.11 and the “s ODS” value was found to be 5.05. In addition, in data set [2], the “log kw, IAM” value is on record as 2.52 and the “s IAM” value amounted to 5.06. Further, in data set [3], the “log kw, Cholester” value is recorded as 2.98 and the “s Cholester” value was 4.85.
Turning to `CCOC(=O)Cc1nnc2n(c1=O)CCN2c1ccc(Cl)cc1` [Compound 16], in data set [1], the “log kw, ODS” value is listed as 2.80 and the “s ODS” value was 4.88. In data set [2], the “log kw, IAM” value is 2.11 and the “s IAM” value is 4.51. For the same molecule, in data set [3], the “log kw, Cholester” value is 2.37 and the “s Cholester” value was 4.19.
Regarding `O=c1c(-c2ccco2)nnc2n1CCN2c1cccc(Cl)c1` [Compound 25], in data set [1], the “log kw, ODS” value was 2.75 and the “s ODS” value was 4.85. For the same molecule, in data set [2], the “log kw, IAM” value is 2.08 and the “s IAM” value amounted to 4.55. Further, in data set [3], the “log kw, Cholester” value is 2.36 and the “s Cholester” value is 4.05.
As for `Cc1cccc(N2CCn3c2nnc(-c2ccccc2)c3=O)c1` [Compound 31], in data set [1], the “log kw, ODS” value is listed as 2.93 and the “s ODS” value was determined as 5.02. In data set [2], the “log kw, IAM” value is 2.26 and the “s IAM” value is given as 4.68. Moreover, in data set [3], the “log kw, Cholester” value is given as 2.77 and the “s Cholester” value is given as 4.42.
On to `CCOC(=O)Cc1nnc2n(c1=O)CCN2c1ccc(Cl)c(Cl)c1` [Compound 17], for which, in data set [1], the “log kw, ODS” value is listed as 3.16 and the “s ODS” value was determined as 5.33. Moreover, in data set [2], the “log kw, IAM” value is reported as 2.42 and the “s IAM” value was 5.01. Besides, in data set [3], the “log kw, Cholester” value was 2.77 and the “s Cholester” value was 4.61.
